Test results from patent US20240109934A1, “ANTIBIOTICS WITH IMPROVED DRUG RESISTANCE PROFILE” (priority 2021, published 2024).
In brackets after ≈: the same amount, converted by molar mass. Read-outs that look alike come from different tables or passages of the source.

Legend:
S. aureus ATCC 29213 [1] = assay: MIC by micro-dilution broth method (CLSI); type: cell-based; conditions: for Antibacterial activity relative to FA: S. aureus ATCC 29213 MIC; for MIC: Staphylococcus aureus, ATCC29213, WT S. aureus ATCC 29213, n = 3, read-out: MIC Without Human Serum
[2] = tested on: human foreskin fibroblasts (HFF-1); assay: Cell viability, Alamar Blue assay; type: cell-based; conditions: 72 h incubation, error SEM n = 2, read-out: IC50, Mammalian Toxicity in HFF-1
Procedure: Cell Culture. HFF-1 cells were obtained from ATCC. HFF-1 cells were grown in DMEM with 15% fetal bovine serum (Gemini Benchmark, Cat #100-106), 100 U/mL penicillin, and 100 μg/mL streptomycin. All cells were cultured at 37° C. in a 5% CO2 environment. Media was prepared by the University of Illinois School of Chemical Sciences Cell Media Facility.
Cell Viability. Cells were harvested, seeded in a 96 well-plate and allowed to adhere. Cells were treated with investigational compounds in DMSO (1% final concentration). Cells were incubated for 72 h before viability was assessed by the Alamar Blue Assay. Raptinal ([…]) was used as a dead control.

S. aureus ATCC 29213 [3] = assay: Resistance frequency, large inoculum method; type: cell-based; conditions: head-to-head with FA, 2×-32× the MIC
Procedure: Selection of Resistant Mutants. Resistant mutants were selected via the large inoculum method. Briefly, S. aureus ATCC 29213 (1×10^9 CFU) were plated on 100 mm plates of LB agar containing 4, 2, 1, 0.5, and 0.25 μg/mL.

S. aureus 29213 = assay: MIC shift with 50% human serum; type: cell-based; conditions: S. aureus 29213, 50% human serum vs none
Procedure: Antimicrobial Susceptibility Tests. Susceptibility testing was performed in biological triplicate, using the micro-dilution broth method as outlined by the Clinical and Laboratory Standards Institute. […] Human serum (Ultrafiltrate, unspecified gender, 30K Dalton membrane filtered) was purchased from BioIVT (Hicksville, NY).

[4] = Mouse liver microsome stability assay; type: in vitro ADME; conditions: 3 h at 37° C., LC-MS/MS, ± SEM of 3 biological replicates
Procedure: Mouse Liver Microsome Stability Assay. A mixture of PBS (pH 7.4), NADPH regenerating system solution A (Corning Life Sciences), and NADPH regenerating system solution B (Corning Life Sciences) was incubated at 37° C. in a shaking incubator for 5 min. Next, compound was added in DMSO (final concentration 50 μM, 0.5% DMSO) before ice-cold mouse liver microsomes (Thermo Fisher, male CD-1 mice, pooled) were added (final protein concentration of 1 mg/mL). An aliquot was immediately removed, quenched with an equal volume of 100 μM internal standard and centrifuged at 13,000 rcf for 3 min. The reactions were incubated at 37° C. in a shaking incubator for 3 h. A second aliquot was removed and quenched. Samples were analyzed with the 5500 QTRAP LC/MS/MS system (Sciex, Framingham, MA) in Metabolomics Lab of Roy J. Carver Biotechnology Center, University of Illinois at Urbana-Champaign. Software Analyst 1.6.2 was used for data acquisition and analysis. The 1200 series HPLC system (Agilent Technologies, Santa Clara, CA) includes a degasser, an autosampler, and a binary pump. The LC separation was performed on an Agilent Sb-Aq column (4.6×50 mm, […]) with mobile phase A (0.1% formic acid in water) and mobile phase B (0.1% formic acid in acetonitrile). The flow rate was 0.3 mL/min. The linear gradient was as follows: 0-3 min, 100% A; 10-16 min, 5% A; 16.5-22 min, 100% A. The autosampler was set at 10° C. The injection volume was 1 μL. Mass spectra were acquired under both positive (ion spray voltage was +5500 V) and negative (ion spray voltage was −4500 V) electrospray ionization (ESI). The source temperature was 450° C. The curtain gas, ion source gas 1, and ion source gas 2 were 33, 65, and 60 psi, respectively. Multiple reaction monitoring (MRM) was used for quantitation.

[5] = tested on: multidrug-resistant clinical isolates of E. faecium; assay: MIC against multidrug-resistant clinical isolates of E. faecium; type: cell-based
[6] = tested on: multidrug-resistant clinical isolates of S. aureus; assay: MIC against multidrug-resistant clinical isolates of S. aureus; type: cell-based; conditions: Staphylococcus aureus

Q: Which “Antibacterial activity relative to FA” value (S. aureus ATCC 29213 [1]) does the source give for `CC(=O)O[C@H]1C[C@@]2(C)[C@@H](C[C@@H](O)[C@H]3[C@@]4(C)CC[C@@H](O)[C@@H](C)[C@@H]4CC[C@@]32C)/C1=C(\CCC=C(Cl)Cl)C(=O)O` [Compound 15, (Z)-2-((3R,4S,5S,8S,9S,10S,11R,13R,14S,16S)-16-acetoxy-3,11-dihydroxy-4,8,10,14-tetramethylhexadecahydro-17H-cyclopenta[a]phenanthren-17-ylidene)-6,6-dichlorohex-5-enoic acid] here?
A: The value was “modest decreases in potency relative to FA”.

Q: Which IC50 [2] does the source give for `CC(=O)O[C@H]1C[C@@]2(C)[C@@H](C[C@@H](O)[C@H]3[C@@]4(C)CC[C@@H](O)[C@@H](C)[C@@H]4CC[C@@]32C)/C1=C(\CCC=C(Br)Br)C(=O)O` [Compound 16, (Z)-2-((3R,4S,5S,8S,9S,10S,11R,13R,14S,16S)-16-acetoxy-3,11-dihydroxy-4,8,10,14-tetramethylhexadecahydro-17H-cyclopenta[a]phenanthren-17-ylidene)-6,6-dibromohex-5-enoic acid] here?
A: Its IC50 is 75 ± 3 µM.

Q: And the IC50 ([2]; Homo sapiens, HFF-1, 72 h)?
A: Its IC50 is > 50 µM.

Q: What about the “Resistance frequency relative to FA” value (S. aureus ATCC 29213 [3]) of the same compound?
A: The value was “worse resistance frequency relative to FA”.

Q: And the “Fold Change Increase in MIC with 50% Human Serum” value (S. aureus 29213)?
A: Its value is 32X.

Q: And the “Metabolic Stability in Mouse Liver Microsomes (percent remaining)” value [4]?
A: Its value is 88 ± 2%.

Q: What about the “Antibacterial activity relative to FA” value (S. aureus ATCC 29213 [1]) of the same compound?
A: Its value is “equipotent activity to FA”.

Q: What about the MIC (S. aureus ATCC 29213 [1]) of the same compound?
A: The MIC was 0.125 µg/mL (≈ 0.193 µM).

Q: With `CC(=O)O[C@H]1C[C@@]2(C)[C@@H](C[C@@H](O)[C@H]3[C@@]4(C)CC[C@@H](O)[C@@H](C)[C@@H]4CC[C@@]32C)/C1=C(\CCC=C(I)I)C(=O)O` [Compound 17, (Z)-2-((3R,4S,5S,8S,9S,10S,11R,13R,14S,16S)-16-acetoxy-3,11-dihydroxy-4,8,10,14-tetramethylhexadecahydro-17H-cyclopenta[a]phenanthren-17-ylidene)-6,6-diiodohex-5-enoic acid] as the compound, how does the “Antibacterial activity relative to FA” value (S. aureus ATCC 29213 [1]) read?
A: Its value is “modest decreases in potency relative to FA”.

Q: Which “Antibacterial activity relative to FA” value (S. aureus ATCC 29213 [1]) does the source give for `CC(=O)O[C@H]1C[C@@]2(C)[C@@H](C[C@@H](O)[C@H]3[C@@]4(C)CC[C@@H](O)[C@@H](C)[C@@H]4CC[C@@]32C)/C1=C(\CCC=C(F)F)C(=O)O` [Compound 19, (Z)-2-((3R,4S,5S,8S,9S,10S,11R,13R,14S,16S)-16-acetoxy-3,11-dihydroxy-4,8,10,14-tetramethylhexadecahydro-17H-cyclopenta[a]phenanthren-17-ylidene)-6,6-difluorohex-5-enoic acid] here?
A: Its value is “modest decreases in potency relative to FA”.

Q: With `C=CCC/C(C(=O)O)=C1/[C@@H](OC(C)=O)C[C@@]2(C)[C@H]1C[C@@H](O)[C@H]1[C@@]3(C)CC[C@@H](O)[C@@H](C)[C@@H]3CC[C@@]12C` [Compound 21] as the compound, how does the “Antibacterial activity relative to FA” value (S. aureus ATCC 29213 [1]) read?
A: The value was “modest decreases in potency relative to FA”.

Q: With `CC(=O)O[C@H]1C[C@@]2(C)[C@@H](C[C@@H](O)[C@H]3[C@@]4(C)CC[C@@H](O)[C@@H](C)[C@@H]4CC[C@@]32C)/C1=C(\CCC=C1CCOCC1)C(=O)O` [Compound 27, (Z)-2-((3R,4S,5S,8S,9S,10S,11R,13R,14S,16S)-16-acetoxy-3,11-dihydroxy-4,8,10,14-tetramethylhexadecahydro-17H-cyclopenta[a]phenanthren-17-ylidene)-5-(tetrahydro-4H-pyran-4-ylidene)pentanoic acid] as the compound, how does the “Resistance frequency relative to FA” value (S. aureus ATCC 29213 [3]) read?
A: Its value is “worse resistance frequency relative to FA”.

Q: And the “Fold Change Increase in MIC with 50% Human Serum” value (S. aureus 29213)?
A: The value was 32X.

Q: What about the “Metabolic Stability in Mouse Liver Microsomes (percent remaining)” value [4] of the same compound?
A: The value was 86 ± 5%.

Q: And the “Antibacterial activity relative to FA” value (S. aureus ATCC 29213 [1])?
A: Its value is “equipotent activity to FA”.

Q: What about the MIC (S. aureus ATCC 29213 [1]) of the same compound?
A: The MIC was 0.125 µg/mL (≈ 0.224 µM).

Q: For `CC(=O)O[C@H]1C[C@@]2(C)[C@@H](C[C@@H](O)[C@H]3[C@@]4(C)CC[C@@H](O)[C@@H](C)[C@@H]4CC[C@@]32C)/C1=C(\CCCC(C)C)C(=O)O` [Compound 28, (Z)-2-((3R,4S,5S,8S,9S,10S,11R,13R,14S,16S)-16-acetoxy-3,11-dihydroxy-4,8,10,14-tetramethylhexadecahydro-17H-cyclopenta[a]phenanthren-17-ylidene)-6-methylheptanoic acid], which “Antibacterial activity relative to FA” value (S. aureus ATCC 29213 [1]) is on record?
A: Its value is “modest decreases in potency relative to FA”.

Q: What does the source list for `CN[C@H](CC(C)C)C(=O)N[C@H]1C(=O)N[C@@H](CC(N)=O)C(=O)N[C@H]2C(=O)N[C@H]3C(=O)N[C@H](C(=O)N[C@H](C(=O)O)c4cc(O)cc(O)c4-c4cc3ccc4O)[C@H](O)c3ccc(c(Cl)c3)Oc3cc2cc(c3O[C@@H]2O[C@H](CO)[C@@H](O)[C@H](O)[C@H]2O[C@H]2C[C@](C)(N)[C@H](O)[C@H](C)O2)Oc2ccc(cc2Cl)[C@H]1O` [Vancomycin, vancomycin]?
A: MIC ([5]; Enterococcus faecium, E. faecium AR0572 (CDC)): 512 µg/mL (≈ 353 µM); MIC ([5]; Enterococcus faecium, E. faecium AR0574 (CDC)): 0.5 µg/mL (≈ 0.345 µM); MIC ([5]; Enterococcus faecium, E. faecium AR0575 (CDC)): 512 µg/mL (≈ 353 µM); MIC ([5]; Enterococcus faecium, E. faecium AR0576 (CDC)): 1 µg/mL (≈ 0.69 µM); MIC ([5]; Enterococcus faecium, E. faecium AR0578 (CDC)): 0.5 µg/mL (≈ 0.345 µM); MIC ([5]; Enterococcus faecium, E. faecium AR0579 (CDC)): 0.5 µg/mL (≈ 0.345 µM); MIC ([5]; VRE with high levels of vancomycin resistance): 512 µg/mL (≈ 353 µM); MIC ([6]; NRS3, S. aureus NRS3 (NARSA)): 4 µg/mL (≈ 2.76 µM); MIC ([6]; NRS4, S. aureus NRS4 (NARSA)): 4 µg/mL (≈ 2.76 µM); MIC ([6]; NRS17, S. aureus NRS17 (NARSA)): 8 µg/mL (≈ 5.52 µM); MIC ([6]; NRS18, S. aureus NRS18 (NARSA)): 4 µg/mL (≈ 2.76 µM); MIC ([6]; NRS21, S. aureus NRS21 (NARSA)): 4 µg/mL (≈ 2.76 µM); MIC ([6]; NRS22, S. aureus NRS22 (NARSA)): 4 µg/mL (≈ 2.76 µM); MIC ([6]; NRS23, S. aureus NRS23 (NARSA)): 4 µg/mL (≈ 2.76 µM); MIC ([6]; NRS24, S. aureus NRS24 (NARSA)): 4 µg/mL (≈ 2.76 µM); MIC ([6]; NRS26, S. aureus NRS26 (NARSA)): 2 µg/mL (≈ 1.38 µM); MIC ([6]; NRS27, S. aureus NRS27 (NARSA)): 4 µg/mL (≈ 2.76 µM); MIC ([6]; NRS29, S. aureus NRS29 (NARSA)): 2 µg/mL (≈ 1.38 µM); MIC ([6]; NRS51, S. aureus NRS51 (NARSA)): 4 µg/mL (≈ 2.76 µM); MIC ([6]; NRS68, S. aureus NRS68 (NARSA)): 4 µg/mL (≈ 2.76 µM); MIC ([6]; NRS73, S. aureus NRS73 (NARSA)): 4 µg/mL (≈ 2.76 µM); MIC ([6]; NRS74, S. aureus NRS74 (NARSA)): 8 µg/mL (≈ 5.52 µM); MIC ([6]; NRS76, S. aureus NRS76 (NARSA)): 4 µg/mL (≈ 2.76 µM); MIC ([6]; NRS77, S. aureus NRS77 (NARSA), no noted resistance): 1 µg/mL (≈ 0.69 µM); MIC ([6]; NRS382, S. aureus NRS382 (NARSA)): 2 µg/mL (≈ 1.38 µM); MIC ([6]; NRS383, S. aureus NRS383 (NARSA)): 0.5 µg/mL (≈ 0.345 µM); MIC ([6]; NRS384, S. aureus NRS384 (NARSA)): 1 µg/mL (≈ 0.69 µM); MIC ([6]; S. aureus AR0561 (CDC)): 1 µg/mL (≈ 0.69 µM); MIC ([6]; S. aureus AR0562 (CDC)): 2 µg/mL (≈ 1.38 µM); MIC ([6]; S. aureus AR0563 (CDC)): 1 µg/mL (≈ 0.69 µM); MIC ([6]; S. aureus AR0564 (CDC)): 2 µg/mL (≈ 1.38 µM); MIC ([6]; S. aureus AR0565 (CDC)): 2 µg/mL (≈ 1.38 µM); MIC ([6]; S. aureus AR0566 (CDC)): 0.5 µg/mL (≈ 0.345 µM); MIC ([6]; S. aureus AR0567 (CDC)): 1 µg/mL (≈ 0.69 µM); MIC ([6]; S. aureus AR0568 (CDC)): 0.5 µg/mL (≈ 0.345 µM); MIC ([6]; S. aureus AR0570 (CDC)): 1 µg/mL (≈ 0.69 µM)
